Laboratory results: PubChem BioAssay (NCI)
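96-well plates; 48 h exposure; 5 concentrations. Endpoints by linear interpolation between flanking doses. Not reached: highest tested concentration assigned. TGI marks complete inhibition of growth.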

How the values were obtained:
Test in all cases: growth of human tumour cells (NCI), 48 h
786-0 renal = tested on: 786-0 renal
A498 renal = tested on: A498 renal
A549 NSCLC = tested on: A549 NSCLC
ACHN renal = tested on: ACHN renal
BT-549 breast = tested on: BT-549 breast
CAKI-1 renal = tested on: CAKI-1 renal
CCRF-CEM leukemia = tested on: CCRF-CEM leukemia
COLO 205 colon = tested on: COLO 205 colon
DLD-1 colon = tested on: DLD-1 colon
DMS 114 small cell lung = tested on: DMS 114 small cell lung
DMS 273 small cell lung = tested on: DMS 273 small cell lung
DU-145 prostate = tested on: DU-145 prostate
EKVX NSCLC = tested on: EKVX NSCLC
HCC-2998 colon = tested on: HCC-2998 colon
HCT-116 colon = tested on: HCT-116 colon
HCT-15 colon = tested on: HCT-15 colon
HL-60(TB) leukemia = tested on: HL-60(TB) leukemia
HOP-18 NSCLC = tested on: HOP-18 NSCLC
HOP-62 NSCLC = tested on: HOP-62 NSCLC
HOP-92 NSCLC = tested on: HOP-92 NSCLC
HS 578T breast = tested on: HS 578T breast
HT29 colon = tested on: HT29 colon
IGROV1 ovarian = tested on: IGROV1 ovarian
K-562 leukemia = tested on: K-562 leukemia
KM12 colon = tested on: KM12 colon
KM20L2 colon = tested on: KM20L2 colon
LOX IMVI melanoma = tested on: LOX IMVI melanoma
LXFL 529 NSCLC = tested on: LXFL 529 NSCLC
M14 melanoma = tested on: M14 melanoma
M19-MEL melanoma = tested on: M19-MEL melanoma
MALME-3M melanoma = tested on: MALME-3M melanoma
MCF7 breast = tested on: MCF7 breast
MDA-MB-231 breast = tested on: MDA-MB-231 breast
MDA-MB-435 = tested on: MDA-MB-435
MDA-N = tested on: MDA-N
MOLT-4 leukemia = tested on: MOLT-4 leukemia
NCI-H226 lung = tested on: NCI-H226 lung
NCI-H23 lung = tested on: NCI-H23 lung
NCI-H460 lung = tested on: NCI-H460 lung
NCI-H522 lung = tested on: NCI-H522 lung
NCI/ADR-RES ovarian = tested on: NCI/ADR-RES ovarian
OVCAR-3 ovarian = tested on: OVCAR-3 ovarian
OVCAR-4 ovarian = tested on: OVCAR-4 ovarian
OVCAR-5 ovarian = tested on: OVCAR-5 ovarian
OVCAR-8 ovarian = tested on: OVCAR-8 ovarian
PC-3 prostate = tested on: PC-3 prostate
RPMI-8226 leukemia = tested on: RPMI-8226 leukemia
RXF 393 renal = tested on: RXF 393 renal
RXF-631 renal = tested on: RXF-631 renal
SF-268 CNS = tested on: SF-268 CNS
SF-295 CNS = tested on: SF-295 CNS
SF-539 CNS = tested on: SF-539 CNS
SK-MEL-2 melanoma = tested on: SK-MEL-2 melanoma
SK-MEL-28 melanoma = tested on: SK-MEL-28 melanoma
SK-MEL-5 melanoma = tested on: SK-MEL-5 melanoma
SK-OV-3 ovarian = tested on: SK-OV-3 ovarian
SN12C renal = tested on: SN12C renal
SNB-19 CNS = tested on: SNB-19 CNS
SNB-75 CNS = tested on: SNB-75 CNS
SR leukemia = tested on: SR leukemia
SW-620 colon = tested on: SW-620 colon
T-47D breast = tested on: T-47D breast
TK-10 renal = tested on: TK-10 renal
U251 CNS = tested on: U251 CNS
UACC-257 melanoma = tested on: UACC-257 melanoma
UACC-62 melanoma = tested on: UACC-62 melanoma
UO-31 renal = tested on: UO-31 renal
XF 498 CNS = tested on: XF 498 CNS

CCOC(=O)c1c(C)c(C)n2c1NC(=O)C2
TGI (786-0 renal): 98.9 µM | TGI (A498 renal): > 100 µM | TGI (A549 NSCLC): > 100 µM | TGI (ACHN renal): > 100 µM | TGI (BT-549 breast): > 100 µM | TGI (CAKI-1 renal): > 100 µM | TGI (CCRF-CEM leukemia): > 100 µM | TGI (COLO 205 colon): > 100 µM | TGI (DLD-1 colon): > 100 µM | TGI (DMS 114 small cell lung): > 100 µM | TGI (DMS 273 small cell lung): > 100 µM | TGI (DU-145 prostate): 64.3 µM | TGI (EKVX NSCLC): > 100 µM | TGI (HCC-2998 colon): > 100 µM | TGI (HCT-116 colon): > 100 µM | TGI (HCT-15 colon): > 100 µM | TGI (HL-60(TB) leukemia): > 100 µM | TGI (HOP-18 NSCLC): > 100 µM | TGI (HOP-62 NSCLC): > 100 µM | TGI (HOP-92 NSCLC): > 100 µM | TGI (HS 578T breast): 70 µM | TGI (HT29 colon): > 100 µM | TGI (IGROV1 ovarian): > 100 µM | TGI (K-562 leukemia): > 100 µM | TGI (KM12 colon): > 100 µM | TGI (KM20L2 colon): > 100 µM | TGI (LOX IMVI melanoma): > 100 µM | TGI (LXFL 529 NSCLC): > 100 µM | TGI (M14 melanoma): > 100 µM | TGI (M19-MEL melanoma): > 100 µM | TGI (MALME-3M melanoma): > 85.7 µM | TGI (MCF7 breast): 84 µM | TGI (MDA-MB-231 breast): > 100 µM | TGI (MDA-MB-435): > 100 µM | TGI (MDA-N): > 100 µM | TGI (MOLT-4 leukemia): > 100 µM | TGI (NCI-H226 lung): > 100 µM | TGI (NCI-H23 lung): > 68.5 µM | TGI (NCI-H460 lung): > 100 µM | TGI (NCI-H522 lung): > 68 µM | TGI (NCI/ADR-RES ovarian): 81.5 µM | TGI (OVCAR-3 ovarian): > 100 µM | TGI (OVCAR-4 ovarian): > 100 µM | TGI (OVCAR-5 ovarian): > 100 µM | TGI (OVCAR-8 ovarian): > 100 µM | TGI (PC-3 prostate): > 100 µM | TGI (RPMI-8226 leukemia): > 100 µM | TGI (RXF 393 renal): > 78.2 µM | TGI (RXF-631 renal): > 100 µM | TGI (SF-268 CNS): > 100 µM | TGI (SF-295 CNS): > 100 µM | TGI (SF-539 CNS): > 100 µM | TGI (SK-MEL-2 melanoma): > 100 µM | TGI (SK-MEL-28 melanoma): > 100 µM | TGI (SK-MEL-5 melanoma): > 100 µM | TGI (SK-OV-3 ovarian): > 100 µM | TGI (SN12C renal): > 100 µM | TGI (SNB-19 CNS): > 100 µM | TGI (SNB-75 CNS): > 74.7 µM | TGI (SR leukemia): > 100 µM | TGI (SW-620 colon): > 100 µM | TGI (T-47D breast): 70.7 µM | TGI (TK-10 renal): > 89.4 µM | TGI (U251 CNS): 97.7 µM | TGI (UACC-257 melanoma): > 100 µM | TGI (UACC-62 melanoma): > 100 µM | TGI (UO-31 renal): > 100 µM | TGI (XF 498 CNS): 61.1 µM
